Assay results published in patent US20040186066A1, “Method of treatment with nelfinavir” (AGOURON PHARMACEUTICALS, INC., priority 2003, published 2004).
Where a name gives a salt, the structure may show the parent alone. Read-outs that look alike come from different tables or passages of the source.

Columns and labels:
[1] = Example 1: phase I crossover food-effect study, single-dose pharmacokinetics of nelfinavir 250 mg tablets (total kilocalories and fat); format: in vivo, human (normal healthy volunteers); settings: for half-life / AUC / Cmax / Tmax / AUC(0-t) / AUC(0-inf): human, plasma, 1250 mg; for AUC: read-out: AUC12; for AUC(0-t): read-out: AUC(0-tlqc), least-squares mean; for AUC(0-inf): read-out: AUC(0-∞) (AUCinf), least-squares mean
Experimental: A phase I, randomized, open-label crossover study to evaluate the impact of total kilocalories and fat content on single-dose pharmacokinetic parameters of the nelfinavir 250 mg tablet formulation in normal healthy volunteers was performed. Healthy volunteers entered the study and received the following treatment in random order at least 1 week apart: 1) 5×250 mg nelfinavir tablets, fasted 2) 5×250 mg nelfinavir tablets (breakfast meal 1, 125 Kcal/20% fat=low cal/low fat) 3) 5×250 mg nelfinavir tablets (breakfast meal 2, 500 Kcal/20% fat=medium cal/low fat) 4) 5×250 mg nelfinavir tablets (breakfast meal 3, 1000 Kcal/50% fat=high cal/high fat). Plasma concentrations of nelfinavir and its active hydroxy-t-butylamide metabolite (M8) were measured by validated high performance liquid chromatography (HPLC) methods. Pharmacokinetic parameters were determined from plasma concentration-time data using standard methods. Nelfinavir was administered as five 250-mg tablets with 240 mL of water. All subjects received a standardized snack the evening they were admitted to the in-patient facility. For the fasting evaluation, subjects were required to complete an overnight fast of at least 10 hours prior to dosing in the morning. For the fed pharmacokinetic evaluations, subjects were required to complete an overnight fast of at least 10 hours, prior to receiving the protocol-specific standardized breakfast meal (that is, Meal 1, Meal 2, or Meal 3). Subjects were given 30 minutes to complete their standardized breakfast meal. Dosing was performed in the morning, immediately following the subject's completion of the standardized breakfast meal and after the subject's pre-dose pharmacokinetic specimen had been collected. Subjects could not ingest water 1 hour prior to or 1 hour after dosing. A standardized lunch was given at least 4 hours after the morning dose and a standardized dinner was given at least 10 hours after the morning dose. For pharmacokinetic sampling, blood samples, 5 mL each, were collected into heparinized vacuum tubes (green top tubes) via an indwelling catheter or direct venipuncture. The actual time of each collection was recorded on the source document. The timing of each sample collection was as follows: predose and at 0.5, 1, 2, 3, 4, 6, 8, and 12 hours postdose on Days 1, 8,15, and 22. Pharmacokinetic parameter values were calculated using WinNonlin Pro Version 2.1. Individual nelfinavir plasma concentrations were used to predict steady-state plasma concentrations during BID administration with meals of various Kcal content. WinNonlin Pro Version 3.2 noncompartmental superposition was used for this simulation. Predicted steady-state Cmax and Cmin values were compared.

[2] = cited from earlier work
[3] = light breakfast 350 kcal/13 g fat vs standard breakfast 800 kcal/35 g fat; cited from earlier work
[4] = nelfinavir and nelfinavir plus M8; full breakfast 610 kcal vs light breakfast 271 kcal; once-daily with low-dose ritonavir; cited from earlier work
[5] = single dose; cited from earlier work
[6] = meals 517 to 759 Kcal, 153 to 313 Kcal from fat; cited from earlier work
[7] = po, nelfinavir, 1250 mg single oral dose with high calorie/high fat meal (1000 Kcal/50% fat)
[8] = po, nelfinavir, 1250 mg single oral dose with low calorie/low fat meal (125 Kcal/20% fat)
[9] = po, nelfinavir, 1250 mg single oral dose with moderate calorie/low fat meal (500 Kcal/20% fat)
[10] = po, nelfinavir, 1250 mg single oral dose, fasting (reference)
[11] = nelfinavir, 125 kcal/20% fat relative to fasting
[12] = nelfinavir, 500 kcal/20% fat relative to fasting
[13] = nelfinavir, 1000 kcal/50% fat relative to fasting
[14] = nelfinavir, high calorie/high fat meal (1000 Kcal/50% fat) vs fasting
[15] = nelfinavir, low calorie/low fat meal (125 Kcal/20% fat) vs fasting
[16] = nelfinavir, moderate calorie/low fat meal (500 Kcal/20% fat) vs fasting

## Cc1c(O)cccc1C(=O)N[C@@H](CSc1ccccc1)[C@H](O)CN1C[C@H]2CCCC[C@H]2C[C@H]1C(=O)NC(C)(C)C (relative stereo) [nelfinavir, [3S-(3R*, 4aR*, 8aR*, 2′S*, 3′S*)]-2-[2′ hydroxy-3′-phenylthiomethyl-4′-aza-5′-oxo-5′-(2″-methyl-3″-hydroxy-phenyl)pentyl]-decahydroiso-quinoline-3-N-t-butylcarboxamide methanesulfonic acid salt]
[1]; oral, nelfinavir, across fasting and the three meals, read-out: half-life (t½), range of mean values
  half-life: 3.6 to 5.6 h
[1]; oral, nelfinavir, food intake 125 kcal/20% fat
  AUC: 20000 ng·h/mL
[1]; oral, nelfinavir, food intake 125 kcal/20% fat, read-out: Cmax (Table 5)
  Cmax: 3160 ng/mL
[1]; oral, nelfinavir, food intake 500 kcal/20% fat
  AUC: 25500 ng·h/mL
[1]; oral, nelfinavir, food intake 500 kcal/20% fat, read-out: Cmax (Table 5)
  Cmax: 3670 ng/mL
[1]; oral, nelfinavir, food intake 1000 kcal/50% fat
  AUC: 38900 ng·h/mL
[1]; oral, nelfinavir, food intake 1000 kcal/50% fat, read-out: Cmax (Table 5)
  Cmax: 5200 ng/mL
[1]; oral, nelfinavir, high calorie meal, read-out: mean tmax longer relative to fasting subjects
  Tmax: ~2 h
[1]; oral, nelfinavir, low calorie meal, read-out: mean tmax longer relative to fasting subjects
  Tmax: ~1 h
[1]; oral, nelfinavir, moderate calorie meal, read-out: mean tmax longer relative to fasting subjects
  Tmax: ~1.5 h
[1]; po, nelfinavir in plasma, 1250 mg single oral dose with high calorie/high fat meal (1000 Kcal/50% fat), read-out: Cmax, least-squares mean
  Cmax: 5200 ng/mL
[1]; po, nelfinavir in plasma, 1250 mg single oral dose with low calorie/low fat meal (125 Kcal/20% fat), read-out: Cmax, least-squares mean
  Cmax: 3160 ng/mL
[1]; po, nelfinavir in plasma, 1250 mg single oral dose with moderate calorie/low fat meal (500 Kcal/20% fat), read-out: Cmax, least-squares mean
  Cmax: 3670 ng/mL
[1]; po, nelfinavir in plasma, 1250 mg single oral dose, fasting (reference), read-out: Cmax, least-squares mean
  Cmax: 1570 ng/mL
[1]; [7]
  AUC(0-t): 38900 ng·h/mL
  AUC(0-inf): 55300 ng·h/mL
[1]; po, nelfinavir, 1250 mg single oral dose with high calorie/high fat meal (1000 Kcal/50% fat), read-out: t1/2 (terminal half-life), least-squares mean (converted)
  half-life: 5.63 h
[1]; po, nelfinavir, 1250 mg single oral dose with high calorie/high fat meal (1000 Kcal/50% fat), read-out: tmax, least-squares mean
  Tmax: 3.98 h
[1]; [8]
  AUC(0-t): 20000 ng·h/mL
  AUC(0-inf): 23100 ng·h/mL
[1]; po, nelfinavir, 1250 mg single oral dose with low calorie/low fat meal (125 Kcal/20% fat), read-out: t1/2 (terminal half-life), least-squares mean (converted)
  half-life: 3.59 h
[1]; po, nelfinavir, 1250 mg single oral dose with low calorie/low fat meal (125 Kcal/20% fat), read-out: tmax, least-squares mean
  Tmax: 3.02 h
[1]; [9]
  AUC(0-t): 25500 ng·h/mL
  AUC(0-inf): 33400 ng·h/mL
[1]; po, nelfinavir, 1250 mg single oral dose with moderate calorie/low fat meal (500 Kcal/20% fat), read-out: t1/2 (terminal half-life), least-squares mean (converted)
  half-life: 4.77 h
[1]; po, nelfinavir, 1250 mg single oral dose with moderate calorie/low fat meal (500 Kcal/20% fat), read-out: tmax, least-squares mean
  Tmax: 3.87 h
[1]; [10]
  AUC(0-t): 9040 ng·h/mL
  AUC(0-inf): 10600 ng·h/mL
[1]; po, nelfinavir, 1250 mg single oral dose, fasting (reference), read-out: t1/2 (terminal half-life), least-squares mean (converted)
  half-life: 4.1 h
[1]; po, nelfinavir, 1250 mg single oral dose, fasting (reference), read-out: tmax, least-squares mean
  Tmax: 2.18 h
[1]; po, nelfinavir, 1250 mg single oral dose, fasting
  AUC: 9040 ng·h/mL
[1]; po, nelfinavir, 1250 mg single oral dose, fasting, read-out: Cmax (Table 5)
  Cmax: 1570 ng/mL
[1]; nelfinavir, 1250 mg single oral dose with high calorie/high fat meal (1000 Kcal/50% fat)
  AUC(0-∞) (AUCinf), least-squares mean: 55300 ng·h/mL
[1]; nelfinavir, 1250 mg single oral dose with low calorie/low fat meal (125 Kcal/20% fat)
  AUC(0-∞) (AUCinf), least-squares mean: 23100 ng·h/mL
[1]; nelfinavir, 1250 mg single oral dose with moderate calorie/low fat meal (500 Kcal/20% fat)
  AUC(0-∞) (AUCinf), least-squares mean: 33400 ng·h/mL
[1]; nelfinavir, 1250 mg single oral dose, 125 Kcal/20% fat
  C12 (concentration at 12 hours postdose), mean: 0.65 µg/mL
[1]; nelfinavir, 1250 mg single oral dose, 500 Kcal/20% fat
  C12 (concentration at 12 hours postdose), mean: 1.19 µg/mL
[1]; nelfinavir, 1250 mg single oral dose, 1000 Kcal/50% fat
  C12 (concentration at 12 hours postdose), mean: 2.07 µg/mL
[1]; nelfinavir, 1250 mg single oral dose, fasting
  C12 (concentration at 12 hours postdose), mean: 0.41 µg/mL
[1]; [11]
  AUC12 (×fasting): 2.2 X
  AUCinf (×fasting): 2.2 X
  Cmax (×fasting): 2.0 X
[1]; [12]
  AUC12 (×fasting): 2.8 X
  AUCinf (×fasting): 3.1 X
  Cmax (×fasting): 2.3 X
[1]; [13]
  AUC12 (×fasting): 4.3 X
  AUCinf (×fasting): 5.2 X
  Cmax (×fasting): 3.3 X
[1]; nelfinavir, dose with the high calorie/high fat meal, FIG. 1
  C12 values compared with Cmax in fasting subjects: higher than Cmax values in fasting subjects
[1]; nelfinavir, high calorie meal
  mean Cmax higher relative to fasting subjects: 3.3 fold
[1]; [14]
  AUC(0-tlqc) ratio (100% × test/reference): 430%
  AUC(0-∞) ratio (100% × test/reference): 520%
  Cmax ratio (100% × test/reference): 331%
  t1/2 ratio (100% × test/reference): 139%
  tmax ratio (100% × test/reference): 183%
[1]; nelfinavir, low calorie meal
  mean Cmax higher relative to fasting subjects: 2 fold
[1]; [15]
  AUC(0-tlqc) ratio (100% × test/reference): 221%
  AUC(0-∞) ratio (100% × test/reference): 218%
  Cmax ratio (100% × test/reference): 201%
  t1/2 ratio (100% × test/reference): 87.5%
  tmax ratio (100% × test/reference): 139%
[1]; nelfinavir, meal 1 (125 Kcal/20% fat)
  bioavailability higher relative to fasting subjects, based on AUC(0-∞): 2.2 fold
[1]; nelfinavir, meal 2 (500 Kcal/20% fat)
  bioavailability higher relative to fasting subjects, based on AUC(0-∞): 3.1 fold
[1]; nelfinavir, meal 3 (1000 Kcal/50% fat)
  bioavailability higher relative to fasting subjects, based on AUC(0-∞): 5.2 fold
[1]; nelfinavir, meals containing 500-1000 kcal and 20-50% fat
  AUC increase over fasting state: 3-5 fold
[1]; nelfinavir, moderate calorie meal
  mean Cmax higher relative to fasting subjects: 2.3 fold
[1]; [16]
  AUC(0-tlqc) ratio (100% × test/reference): 282%
  AUC(0-∞) ratio (100% × test/reference): 314%
  Cmax ratio (100% × test/reference): 234%
  t1/2 ratio (100% × test/reference): 116%
  tmax ratio (100% × test/reference): 178%
[2]; animals fasted overnight
  oral bioavailability: 29%
[2]; fed rats, dogs and monkeys (meal 30 minutes before drug administration)
  oral bioavailability: 43%
[3]
  AUC0-12h less with light breakfast than with standard breakfast: 13%
  effect of the two breakfasts on C1-hour post dose, Cmax and C12-hours: No significant effects
[4]
  effect of meal consumption on AUC24h, corr and Cmin: significant effect
[5]
  AUC under fasting conditions as % of AUC with food: 27-50%
[6]
  AUC, fed compared to fasting: two to three-fold higher
  maximum plasma concentrations, fed compared to fasting: two to three-fold higher
